Data from US7612079B2, “2,6,9-substituted purine derivatives and their use in the treatment of proliferative disorders” (Cyclacel Limited, priority 2001, dated 2009).
“And” between values parts separate entries of the source, which are not always exact repeats. Equal values may be shown once.

Legend:
CDK7/cyclin H = CDK7/cyclin H (Homo sapiens, UniProt P50613); experiment: CDK7/cyclin H kinase inhibition; type: biochemical; details: Table 2
CDK4/cyclin D1 = CDK4/cyclin D1 (Homo sapiens, UniProt P11802); experiment: CDK4/cyclin D1 kinase assay (GST-Rb phosphorylation); type: biochemical; details: Table 2; read-out: Kinase inhibition CDK4/cyclin D1 IC50
Chain of CDK4/cyclin D1 (P11802 whole entry, species assumed): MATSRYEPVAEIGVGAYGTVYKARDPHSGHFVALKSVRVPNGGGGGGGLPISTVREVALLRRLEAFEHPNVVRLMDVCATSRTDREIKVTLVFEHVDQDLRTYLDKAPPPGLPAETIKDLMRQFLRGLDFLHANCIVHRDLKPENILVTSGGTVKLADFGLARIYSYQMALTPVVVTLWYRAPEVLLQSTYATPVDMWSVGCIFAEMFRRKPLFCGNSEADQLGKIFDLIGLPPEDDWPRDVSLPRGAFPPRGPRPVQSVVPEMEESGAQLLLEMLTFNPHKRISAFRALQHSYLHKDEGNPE
Chain of CDK4/cyclin D1 (P24385 whole entry partner, species assumed): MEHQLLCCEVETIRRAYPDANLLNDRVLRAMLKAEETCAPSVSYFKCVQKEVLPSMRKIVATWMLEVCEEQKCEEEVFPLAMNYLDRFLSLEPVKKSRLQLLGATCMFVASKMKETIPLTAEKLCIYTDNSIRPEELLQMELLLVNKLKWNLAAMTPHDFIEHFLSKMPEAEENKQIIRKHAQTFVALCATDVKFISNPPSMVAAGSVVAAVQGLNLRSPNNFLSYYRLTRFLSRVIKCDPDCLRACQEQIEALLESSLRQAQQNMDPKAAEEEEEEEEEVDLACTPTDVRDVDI
Experimental: (§1) Assays for CDK2/cyclin E kinase, CDK1/cyclin B and CDK4/cyclin D1 may be carried out by monitoring phosphorylation of GST-Rb in an appropriate system. […] The phosphorylation reaction mixture (total volume 40 μl) consisted of 50 mM HEPES pH 7.4, 20 mM MgCl2, 5 mM EGTA, 2 mM DTT, 20 mM β-glycerophosphate, 2 mM NaF, 1 mM Na3VO4, Protease Inhibitors Cocktail (Sigma, see above), BSA 0.5 mg/ml, 1 μg purified enzyme complex, 10 μl of GST-Rb-Sepharose-beads, 100 μM ATP, 0.2 μCi ^32P-ATP. The reaction is carried out for 30 min at 30° C. at constant shaking. At the end of this period 100 μl of 50 mM HEPES, pH 7.4 and 1 mM ATP is added to each well and the total volume transferred onto GFC filtered plate. The plate is washed 5 times with 200 μl of 50 mM HEPES, pH 7.4 and 1 mM ATP. To each well was added 50 μl scintillant liquid and the radioactivity of the samples is measured on Scintilation counter (Topcount, HP). The IC50 values of different peptides were calculated using GraFit software.

A549, HT29, Saos-2 = experiment: In vitro anti-proliferative activity, 72-h MTT, A549, HT29, Saos-2; type: cell-based; details: read-out: In vitro anti-proliferative activity (72-h MTT IC50), Cell lines: A549, HT29, Saos-2
[1] = target: T1, cyclic AMP-dependent kinase (PKA) catalytic subunit (Homo sapiens, UniProt P17612); experiment: PKA kinase assay (Kemptide phosphorylation); type: biochemical; details: Table 2; read-out: Kinase inhibition PKA IC50
T1 construct: purchased Calbiochem 539487
Experimental: The reaction mixture (total volume 50 μl) consisted of 20 mM MOPS, pH 7.2, 25 mM β-glycerophosphate, 5 mM EGTA, 1 mM DTT, 1 mM Na3VO4, 10 mM MgCl2, 100 μM ATP, 0.2 μCi [γ-^32P]-ATP.

mouse ERK-2 = target: T2, mouse ERK-2 (Mus musculus, UniProt P63085); experiment: ERK-2 kinase assay (MBP phosphorylation); type: biochemical; details: Table 2; read-out: Kinase inhibition ERK2 IC50
T2 construct: purchased Upstate Biotechnologies
T2 sequence (P63085 whole entry): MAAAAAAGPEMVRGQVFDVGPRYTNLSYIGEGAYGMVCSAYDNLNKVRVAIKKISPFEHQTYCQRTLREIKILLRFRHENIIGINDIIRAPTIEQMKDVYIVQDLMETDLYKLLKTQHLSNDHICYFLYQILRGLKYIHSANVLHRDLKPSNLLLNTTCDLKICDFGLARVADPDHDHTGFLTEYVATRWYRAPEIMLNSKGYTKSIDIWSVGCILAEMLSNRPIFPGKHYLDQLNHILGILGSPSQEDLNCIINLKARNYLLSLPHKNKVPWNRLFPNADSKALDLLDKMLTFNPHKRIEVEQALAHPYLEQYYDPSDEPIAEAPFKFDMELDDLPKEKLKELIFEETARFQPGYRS
Experimental: ERK-2 kinase activity was measured by the incorporation of radioactive phosphate into myelin basic protein (MBP), catalysed by purified mouse ERK-2 (Upstate Biotechnologies). The reaction mixture (total volume 50 μL) consisted of 20 mM MOPS, pH 7.0,25 mM β-glycerophosphate, 5 mM EGTA, 1 mM DTT, 1 mM Na3VO4, 10 mM MgCl2, 100 μM ATP, 0.2 μCi [γ-^32P]-ATP.

HCT116 = experiment: 72-h MTT proliferation assay, HCT116; type: cell-based; details: Homo sapiens, HCT-116, read-out: IC50 Cell line HCT116
Source text: (§2) Selected compounds from the above examples were subjected to a standard cellular proliferation assay using seven different human tumour cell lines: A2780, A278CisF, CH1, CH1DoxR, HCT116, HT29 and KM12. […] Human tumour cell lines were obtained from the ATCC (American Type Culture Collection, 10801 University Boulevard, Manessas, Va. 20110-2209, USA). The results are shown in Table 1, together with the average IC50 over the seven different cell lines.

KM12 = experiment: 72-h MTT proliferation assay, KM12; type: cell-based; details: Homo sapiens, read-out: IC50 Cell line KM12
Source text: as §2

HT29 = experiment: 72-h MTT proliferation assay, HT29; type: cell-based; details: Homo sapiens, HT-29, read-out: IC50 Cell line HT29
Source text: as §2

A2780 = experiment: 72-h MTT proliferation assay, A2780; type: cell-based; details: Homo sapiens, read-out: IC50 Cell line A2780
Source text: as §2

A2780 CisR = experiment: 72-h MTT proliferation assay, A2780 CisR; type: cell-based; details: Homo sapiens, A2780cisR, read-out: IC50 Cell line A2780 CisR
Source text: as §2

CH1DoxR = experiment: 72-h MTT proliferation assay, CH1DoxR; type: cell-based; details: Homo sapiens, read-out: IC50 Cell line CH1DoxR
Source text: as §2

CDK2/cyclin E = target: T3, CDK2/cyclin E (Homo sapiens, UniProt P24941); experiment: CDK2/cyclin E kinase assay (GST-Rb phosphorylation); type: biochemical; details: Table 1
T3 construct: His; made in house; host or cells: Sf9 insect cells (baculovirus)
Experimental: as §1
For use in said assay CDK2 may be obtained from available sources or produced by recombinant methods as described His-tagged CDK2/Cyclin E and CDK1/Cyclin B may be co-expressed in Sf 9 insect cells infected with the appropriate baculovirus constructs. The cells are harvested two days after infection by low speed centrifugation and the proteins purified from the insect cell pellets by Metal-chelate chromatography. Briefly, the insect cell pellet is lysed in Buffer A (10 mM Tris-HCl, pH 8.0, 150 mM NaCl, 0.02% NP40 and 5 mM, β-marcaptoethanol, 1 mM NaF. 1 mM Na3VO4 and Protease Inhibitors Coctail (Sigma) containing AEBSF, pepstatin A, E 64, bestatin, leupeptin) by sonication. The soluble fraction is cleared by centrifugation and loaded onto Ni-NTA-Agarose (Quiagen). Non bound proteins were washed off with 300 mM NaCl, 5-15 mM Imidazole in Buffer A and the bound proteins eluted with 250 mM Imidazole in Buffer A. The purified proteins are extensively dialyzed against Storage buffer (20 mM HEPES pH 7.4, 50 mM NaCl, 2 mM DTT, 1 mM EDTA, 1 mM EGTA, 0.02% NP40, 10% v/v Glycerol) aliquoted and stored at −70° C. PKC-α—6×His may be purified the same way but using different buffers—50 mM NaH2PO4, pH 8.0 and 0.05% Triton X-100 instead of Tris and NP40 respectively.

CH1 = experiment: 72-h MTT proliferation assay, CH1; type: cell-based; details: Homo sapiens, read-out: IC50 Cell line CH1
Source text: as §2

[2] = tested on: seven different human tumour cell lines: A2780, A278CisF, CH1, CH1DoxR, HCT116, HT29 and KM12; experiment: 72-h MTT proliferation assay, average over seven cell lines; type: cell-based; details: read-out: IC50 Cell line Average
Source text: Selected compounds from the above examples were subjected to a standard cellular proliferation assay using seven different human tumour cell lines: A2780, A278CisF, CH1, CH1DoxR, HCT116, HT29 and KM12.

in vivo = details: mouse
[3] = Metabolic carbinol-carboxyl oxidation; details: remark in Table 1

Chain of CDK7/cyclin H (P50613 whole entry, species assumed): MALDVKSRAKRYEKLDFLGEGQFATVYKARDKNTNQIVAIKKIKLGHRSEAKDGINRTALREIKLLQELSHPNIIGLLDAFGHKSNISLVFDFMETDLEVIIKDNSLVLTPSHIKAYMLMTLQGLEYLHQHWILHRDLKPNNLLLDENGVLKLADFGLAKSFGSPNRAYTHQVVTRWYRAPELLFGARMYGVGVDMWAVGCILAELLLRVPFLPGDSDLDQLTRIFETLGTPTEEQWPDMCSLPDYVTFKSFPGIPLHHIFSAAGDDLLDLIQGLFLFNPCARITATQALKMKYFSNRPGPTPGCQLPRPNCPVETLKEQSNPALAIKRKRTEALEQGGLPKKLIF
Chain of CDK7/cyclin H (P51946 whole entry partner, species assumed): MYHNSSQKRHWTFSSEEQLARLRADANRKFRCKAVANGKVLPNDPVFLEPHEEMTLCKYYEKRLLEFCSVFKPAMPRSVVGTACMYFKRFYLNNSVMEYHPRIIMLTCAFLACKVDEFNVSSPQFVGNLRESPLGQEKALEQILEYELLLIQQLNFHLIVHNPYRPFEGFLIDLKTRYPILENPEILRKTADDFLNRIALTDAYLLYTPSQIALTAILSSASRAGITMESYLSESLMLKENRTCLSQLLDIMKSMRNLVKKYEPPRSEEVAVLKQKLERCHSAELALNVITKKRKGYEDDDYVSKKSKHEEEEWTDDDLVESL

CCC(O)[C@@H](CC)Nc1nc(NCc2ccccc2)c2ncn(C(C)C)c2n1 (mixture of isomers) [Example 9, (3RS,4R)-4-(6-Benzylamino-9-isopropyl-9H-purin-2-ylamino)-hexan-3-ol]
IC50 (CDK7/cyclin H): 1.2 µM
IC50 (CDK4/cyclin D1): 34 µM
IC50 (A549, HT29, Saos-2): 11 µM
IC50 [1]: 139 µM
IC50 (mouse ERK-2): 103 µM

CC[C@H](Nc1nc(NCc2ccccc2)c2ncn(C(C)C)c2n1)C(O)C(C)(C)C (mixture of isomers) [Example 14, (3RS,4S)-4-(6-Benzylamino-9-isopropyl-9H-purin-2-ylamino)-2,2-dimethyl-hexan-3-ol]
IC50 (CDK7/cyclin H): 4.3 µM
IC50 (CDK4/cyclin D1): 60 µM
IC50 (A549, HT29, Saos-2): 22 µM
IC50 [1]: > 200 µM
IC50 (mouse ERK-2): > 200 µM

CCC(Nc1nc(NCc2ccccc2)c2ncn(C(C)C)c2n1)C(C)O (stereo not shown) [Example 7]
IC50 [1]: > 50 µM
IC50 (mouse ERK-2): > 50 µM and 43 µM and 29 µM

CC[C@H](CO)Nc1nc(Nc2cccc([N+](=O)[O-])c2)c2ncn(C(C)C)c2n1 [Example 4, (R)-2-[9-Isopropyl-6-(3-nitro-phenlamino)-9H-purin-2-ylamino]-butan-1-ol]
IC50 (HCT116): 1200 nM
IC50 (KM12): 760 nM
IC50 (HT29): 2.1 µM
IC50 (A2780): 245 nM
IC50 (A2780 CisR): 1700 nM
IC50 (CH1DoxR): 560 nM
IC50 (CDK2/cyclin E): 28 ± 10 nM
IC50 (CH1): 1100 nM
IC50 [2]: 1100 nM

OC1CCCN(c2nc(Nc3ccc4c(c3)CCC4)c3ncn(C4CCCC4)c3n2)C1 (stereo not shown) [Example 1, 1-[9-Cyclopentyl-6-(indan-5-ylamino)-9H-purin-2-yl]-piperidin-3-ol]
IC50 (HCT116): 5700 nM
IC50 (KM12): 340 nM
AUC(0-inf) (in vivo): 62500 ng·h/mL
half-life (in vivo): 330 min
IC50 (HT29): 1.8 µM
IC50 (A2780): 2200 nM
IC50 (A2780 CisR): 1100 nM
IC50 (CH1DoxR): 1700 nM
IC50 (CDK2/cyclin E): 580 ± 330 nM
IC50 (CH1): 1500 nM
IC50 [2]: 2000 nM

CCC(O)[C@H](CC)Nc1nc(NCc2ccccc2)c2ncn(C(C)C)c2n1 (stereo partly shown) [Example 10]
IC50 (A549, HT29, Saos-2): 20 µM
IC50 [1]: > 200 µM

CC[C@@H](Nc1nc(NCc2ccccc2)c2ncn(C(C)C)c2n1)C(C)(C)O [Example 15]
IC50 (CDK7/cyclin H): 3.7 µM
IC50 (CDK4/cyclin D1): 12 µM
IC50 (A549, HT29, Saos-2): 15 µM
IC50 [1]: 191 µM

CC[C@@H](Nc1nc(NCc2ccccc2)c2ncn(C(C)C)c2n1)C(O)C(C)C (mixture of isomers) [Example 11, (3RS,4R)-4-(6-Benzylamino-9-isopropyl-9H-purin-2-ylamino)-2-methyl-hexan-3-ol]
IC50 (CDK7/cyclin H): 4.4 µM
IC50 (CDK4/cyclin D1): 28 µM
IC50 (A549, HT29, Saos-2): 11 µM
IC50 [1]: 92 µM
IC50 (mouse ERK-2): > 200 µM

CC[C@@H](Nc1nc(NCc2ccccc2)c2ncn(C(C)C)c2n1)C(O)C(C)(C)C (mixture of isomers) [Example 13, (3RS,4R)-4-(6-Benzylamino-9-isopropyl-9H-purin-2-ylamino)-2,2-dimethyl-hexan-3-ol]
IC50 (CDK7/cyclin H): 3.7 µM
IC50 (CDK4/cyclin D1): > 200 µM
IC50 (A549, HT29, Saos-2): 18 µM
IC50 [1]: 87 µM
IC50 (mouse ERK-2): > 200 µM

CC(C)[C@H](CO)Nc1nc(Nc2cccc([N+](=O)[O-])c2)c2ncn(C(C)C)c2n1 [Example 3, (R)-2-[9-Isopropyl-6-(3-nitro-phenylamino)-9H-purin-2-ylamino]-3-methyl-butan-1-ol]
IC50 (HCT116): 2450 nM
IC50 (KM12): 1050 nM
IC50 (HT29): 4.3 µM
IC50 (A2780): 1100 nM
IC50 (A2780 CisR): 2850 nM
IC50 (CH1DoxR): 1800 nM
IC50 (CDK2/cyclin E): 330 ± 450 nM
IC50 (CH1): 2300 nM
IC50 [2]: 2300 nM

CC[C@H](Nc1nc(NCc2ccccc2)c2ncn(C(C)C)c2n1)C(O)C(C)C (stereo partly shown) [Example 12]
IC50 [1]: 83 µM
IC50 (mouse ERK-2): 88 µM

COc1ccc(CNc2nc(N3CCCC(O)C3)nc3c2ncn3C2CCCC2)cc1OC (stereo not shown) [Example 2, 1-[9-Cyclopentyl-6-(3.4-dimethoxy-benzylamino)-9H-purin-2-yl]piperidin-3-ol]
IC50 (HCT116): 6100 nM
IC50 (KM12): 6400 nM
AUC(0-inf) (in vivo): 19500 ng·h/mL
half-life (in vivo): 252 min
IC50 (HT29): 4.4 µM
IC50 (A2780): 78 nM
IC50 (A2780 CisR): 14000 nM
IC50 (CH1DoxR): 2400 nM
IC50 (CDK2/cyclin E): 1840 ± 310 nM
IC50 (CH1): 940 nM
IC50 [2]: 4900 nM

CC[C@H](Nc1nc(NCc2ccccc2)c2ncn(C(C)C)c2n1)C(C)(C)O [Example 16, (S)-3-(6-Benzylamino-9-isopropyl-9H-purin-2-ylamino)-2 methyl-pentan-2-ol]
IC50 (CDK7/cyclin H): 2 µM
IC50 (CDK4/cyclin D1): 8.5 µM
IC50 (A549, HT29, Saos-2): 10 µM
IC50 [1]: ≥ 200 µM

CC[C@H](Nc1nc(NCc2ccccc2)c2ncn(C(C)C)c2n1)[C@@H](C)O [Example 7 (2R,3S), (2R,3S)-3-(6-Benylamino-9-isopropyl-9H-purin-2-ylamino)-pentan-2-ol]
IC50 (HCT116): 1500 nM
IC50 (KM12): 1900 nM
IC50 (HT29): 5 µM
PK remark: carbinol metabolism [3]: Blocked carbinol metabolism
IC50 (A2780): 3300 nM
IC50 (A2780 CisR): 3400 nM
IC50 (CH1DoxR): 1300 nM
IC50 (CH1): 1800 nM
